# Data as given in patent publication US8019550B2, “Drug discovery method” (Keddem Bioscience Ltd., priority 2002, dated 2011).
# Molecular target: T1, HIV-1 Protease (Human immunodeficiency virus type 1 group M subtype B, UniProt P04585)
# T1 construct: effect on HIV-1 Protease
# Experiment: assay of selected molecules for activity (effect on HIV-1 Protease)
# Assay type: biochemical
# Conditions: various concentrations (between 10 and 1000 micro-molar)
# Method: A set of molecules including the triangle measures were selected and physically assayed and shown to have the expected binding to HIV-1 Protease.
# The triplets were used as a query input for a search in MDL's ACD-SC (available chemical directory for screening).
# All of molecules were actually assayed and appeared to show activity (effect on HIV-1 Protease) at various concentrations (between 10 and 1000 micro-molar). […] Also molecules 34-39 were assayed, with no activity shown, as expected.
row,Compound,activity (effect on HIV-1 Protease)
1,Cc1c(-c2ccccc2)c(=O)n(C)c2c1c(=O)n(-c1ccccc1)c(=O)n2-c1ccccc1 [compound 27],active
2,O=C1C2C(c3ccccc3)NC(c3ccccc3)C1C(c1ccccc1)OC2c1ccccc1 (centres unmarked) [compound 7],active
